Experimental data published in ChEMBL document CHEMBL1201862, “PubChem BioAssay data set” (2004).
The source made the active and inactive calls. For most assays here, no stated cut-off is given here; in the data, actives have a measured EC50 and inactives only a lower limit.

Columns and labels:
[1] = test system: BJ; assay: cytotoxicity toward Ras-transformed BJeLR fibroblasts, dose response, cell-based, alamar blue fluorescence, cherrypicked samples (AID 2631); assay type: functional; settings: Homo sapiens;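 further: confirmatory dose-response assay in RAS-dependent BJ fibroblasts engineered with TERT, LT and ST, with cytotoxicity read by fluorescence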
[2] = Luminescence Cell-Based Dose Response HTS to Identify Inhibitors of 5'UTR Stem-Loop Driven Prion Protein mRNA Translation in H4 Neuroglioblastoma Cells. [Related pubchem assays: 1827 (Project Summary), 1813 (Primary HTS)]; assay type: functional
[3] = test system: BJ; assay: cells; assay type: functional, cell-based; settings: Homo sapiens
[4] = inhibitors of SNCA 5'UTR-driven reporter translation, confirmation, H4 neuroglioma cells, luminescence (AID 1988); assay type: functional, cell-based
[5] = inhibitors of firefly luciferase expression or activity, dose response, H4 neuroglioma cells, luminescence (AID 1990); assay type: functional, cell-based
[6] = test system: BJ; assay: cytotoxicity toward BJ-TERT fibroblasts, dose response, cell-based, RAS-independent, luminescence (AID 1933); assay type: functional; settings: Homo sapiens
[7] = test system: BJ; assay: cytotoxicity toward BJ-TERT-LT-ST fibroblasts, dose response, cell-based, RAS-independent, luminescence (AID 1935); assay type: functional; settings: Homo sapiens;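 further: BJ fibroblasts immortalized with TERT plus LT and ST oncogenes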
[8] = cytotoxicity toward DRD oncogenic fibroblasts, dose response, cell-based, non-viral oncogenic, luminescence (AID 1934); assay type: functional; settings: Homo sapiens
[9] = inhibitors of intracellular T. cruzi replication, confirmation, NIH3T3 host cells, beta-gal luminescence (AID 2044); assay type: functional, cell-based;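 further: intracellular parasites grown in NIH/3T3 mouse fibroblasts as host cells; luminescent beta-galactosidase reporter signal from transgenic T. cruzi replicating inside host cells; inhibitors lower the luminescence signal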
[10] = cytotoxicity toward NIH3T3 fibroblasts, dose response, counter-screen, cell-based, ATP luminescence, mouse fibroblasts (AID 2010); assay type: functional;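 further: cells exposed to compound for about 90 hours before reading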
[11] = target: Beta-2 adrenergic receptor (Homo sapiens, UniProt P07550); assay: beta2AR agonists driving receptor internalization, dose response, cell-based, FAP fluorogen, flow cytometry, cherry pick 1 (AID 588763); assay type: functional
[12] = target: Beta Lactamase (Pseudomonas aeruginosa, UniProt Q932Y6); assay: beta-lactamase reporter inhibitor potency, dose response, artefact control for TLR9-MyD88 binding inhibitor project, BLA reporter cells, FRET fluorescence (AID 588341); assay type: cell-based;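 further: cell based assay in CHO-K1 cells stably expressing beta-lactamase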
[13] = test system: CHO; assay: cytotoxicity in TLR9-MyD88 CHO cells, dose response, cytotoxicity control for TLR9-MyD88 binding inhibitor project, cell-based, luminescence (AID 588339); assay type: functional, hamster; settings: Cricetulus griseus;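 further: CHO cells stably coexpressing TLR9 and MyD88 fusions from primary screen; compound exposure lasted 48 hours before viability readout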
[14] = target: T1, Fatty acid synthase (Homo sapiens, UniProt P49327); assay: FAS thioesterase domain inhibitors, dose response, biochemical, kinetic fluorescence intensity (AID 624326); assay type: functional;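 further: rate of fluorescence rise from hydrolysis of a fluorogenic O-methyl fluorescein ester substrate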
[15] = target: T1, Fatty acid synthase; assay: FAS thioesterase domain inhibitors, dose response, biochemical, endpoint fluorescence intensity, uHTS hits (AID 624327); assay type: functional;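 further: fluorescence from hydrolysis of an O-methyl fluorescein acyl ester substrate by the enzyme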
[16] = target: Protein disulfide-isomerase (Homo sapiens, UniProt P07237); assay: PDI inhibitors, insulin aggregation turbidity, dose response, biochemical, absorbance, cherry-picked samples (AID 602350); assay type: functional
Protein disulfide-isomerase, sequence (P07237 whole entry): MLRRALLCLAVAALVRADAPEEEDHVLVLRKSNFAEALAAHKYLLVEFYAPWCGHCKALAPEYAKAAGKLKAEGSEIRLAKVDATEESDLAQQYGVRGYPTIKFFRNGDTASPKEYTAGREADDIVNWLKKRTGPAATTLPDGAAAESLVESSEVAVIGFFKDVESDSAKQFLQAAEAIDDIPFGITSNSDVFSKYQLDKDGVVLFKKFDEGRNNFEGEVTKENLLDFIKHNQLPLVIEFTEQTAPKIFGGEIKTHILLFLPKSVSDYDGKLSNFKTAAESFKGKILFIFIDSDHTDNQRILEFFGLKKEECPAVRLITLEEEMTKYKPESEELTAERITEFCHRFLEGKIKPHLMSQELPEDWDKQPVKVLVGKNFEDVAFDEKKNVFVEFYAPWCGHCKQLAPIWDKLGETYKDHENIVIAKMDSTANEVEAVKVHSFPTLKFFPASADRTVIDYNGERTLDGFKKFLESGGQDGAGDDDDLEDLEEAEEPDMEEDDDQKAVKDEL

T1 sequence (P49327 whole entry, the tested form may be a part): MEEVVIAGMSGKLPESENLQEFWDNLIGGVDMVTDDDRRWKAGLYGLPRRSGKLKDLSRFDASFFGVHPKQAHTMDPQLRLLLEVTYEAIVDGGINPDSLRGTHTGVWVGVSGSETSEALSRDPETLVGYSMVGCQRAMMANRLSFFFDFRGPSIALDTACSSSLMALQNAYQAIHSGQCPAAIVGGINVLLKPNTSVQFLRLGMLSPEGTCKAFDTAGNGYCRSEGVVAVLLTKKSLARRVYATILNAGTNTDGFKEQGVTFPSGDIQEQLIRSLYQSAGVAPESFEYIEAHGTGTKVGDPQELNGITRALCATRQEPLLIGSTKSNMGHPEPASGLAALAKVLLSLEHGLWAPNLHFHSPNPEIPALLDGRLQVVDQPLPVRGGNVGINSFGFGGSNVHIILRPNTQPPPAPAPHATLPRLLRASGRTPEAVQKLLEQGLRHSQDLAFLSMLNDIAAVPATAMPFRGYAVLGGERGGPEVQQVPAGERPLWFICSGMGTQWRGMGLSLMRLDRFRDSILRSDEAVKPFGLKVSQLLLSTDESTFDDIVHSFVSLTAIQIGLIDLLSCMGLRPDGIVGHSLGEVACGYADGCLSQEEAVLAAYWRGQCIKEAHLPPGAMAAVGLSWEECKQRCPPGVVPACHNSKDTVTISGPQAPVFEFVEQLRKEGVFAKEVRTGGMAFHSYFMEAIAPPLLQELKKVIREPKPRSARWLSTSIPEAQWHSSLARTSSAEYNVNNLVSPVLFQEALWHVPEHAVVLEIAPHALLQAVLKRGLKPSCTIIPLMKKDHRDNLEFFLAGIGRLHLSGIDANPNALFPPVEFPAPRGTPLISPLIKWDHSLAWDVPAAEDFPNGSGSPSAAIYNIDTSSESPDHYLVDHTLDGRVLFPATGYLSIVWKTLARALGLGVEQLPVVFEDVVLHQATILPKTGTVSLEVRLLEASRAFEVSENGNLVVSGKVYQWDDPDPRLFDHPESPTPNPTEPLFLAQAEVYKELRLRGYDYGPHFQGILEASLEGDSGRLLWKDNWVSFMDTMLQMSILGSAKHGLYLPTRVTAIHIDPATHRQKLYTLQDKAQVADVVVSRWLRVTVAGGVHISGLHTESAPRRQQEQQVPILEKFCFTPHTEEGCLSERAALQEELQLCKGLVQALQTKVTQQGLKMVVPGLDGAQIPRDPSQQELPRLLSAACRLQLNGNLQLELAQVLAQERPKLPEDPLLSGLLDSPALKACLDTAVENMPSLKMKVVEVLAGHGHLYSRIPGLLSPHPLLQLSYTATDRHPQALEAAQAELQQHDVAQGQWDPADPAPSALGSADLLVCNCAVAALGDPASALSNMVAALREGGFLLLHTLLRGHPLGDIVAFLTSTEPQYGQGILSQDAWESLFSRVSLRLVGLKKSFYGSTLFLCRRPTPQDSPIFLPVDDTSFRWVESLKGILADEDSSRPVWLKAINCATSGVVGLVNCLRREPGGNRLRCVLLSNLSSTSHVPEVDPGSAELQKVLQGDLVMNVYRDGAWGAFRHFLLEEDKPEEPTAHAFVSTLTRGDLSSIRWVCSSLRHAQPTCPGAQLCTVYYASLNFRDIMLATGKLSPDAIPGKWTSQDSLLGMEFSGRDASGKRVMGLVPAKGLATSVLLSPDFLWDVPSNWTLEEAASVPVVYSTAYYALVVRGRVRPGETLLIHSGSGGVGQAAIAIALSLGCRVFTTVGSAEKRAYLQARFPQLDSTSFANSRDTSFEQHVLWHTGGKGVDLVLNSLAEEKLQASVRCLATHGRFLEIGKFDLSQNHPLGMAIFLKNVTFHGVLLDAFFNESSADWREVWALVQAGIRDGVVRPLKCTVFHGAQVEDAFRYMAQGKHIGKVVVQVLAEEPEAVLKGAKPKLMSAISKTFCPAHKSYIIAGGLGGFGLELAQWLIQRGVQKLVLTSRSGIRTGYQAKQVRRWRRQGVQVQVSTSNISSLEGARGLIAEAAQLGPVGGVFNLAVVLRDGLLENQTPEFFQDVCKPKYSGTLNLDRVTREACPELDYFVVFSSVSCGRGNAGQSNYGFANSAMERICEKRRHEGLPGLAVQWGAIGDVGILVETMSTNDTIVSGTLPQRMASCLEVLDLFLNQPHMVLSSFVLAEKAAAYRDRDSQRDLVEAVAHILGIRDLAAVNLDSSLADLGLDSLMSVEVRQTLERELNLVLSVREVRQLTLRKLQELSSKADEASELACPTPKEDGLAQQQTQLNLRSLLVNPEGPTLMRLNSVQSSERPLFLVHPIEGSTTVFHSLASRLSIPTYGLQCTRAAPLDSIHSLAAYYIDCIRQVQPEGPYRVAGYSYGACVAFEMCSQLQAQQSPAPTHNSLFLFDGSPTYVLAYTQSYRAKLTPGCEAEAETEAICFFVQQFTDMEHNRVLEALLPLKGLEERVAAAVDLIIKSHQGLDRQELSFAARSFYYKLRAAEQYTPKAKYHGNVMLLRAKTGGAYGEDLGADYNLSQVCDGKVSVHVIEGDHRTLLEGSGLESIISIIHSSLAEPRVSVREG
Beta Lactamase, sequence (Q932Y6 whole entry, the tested form may be a part): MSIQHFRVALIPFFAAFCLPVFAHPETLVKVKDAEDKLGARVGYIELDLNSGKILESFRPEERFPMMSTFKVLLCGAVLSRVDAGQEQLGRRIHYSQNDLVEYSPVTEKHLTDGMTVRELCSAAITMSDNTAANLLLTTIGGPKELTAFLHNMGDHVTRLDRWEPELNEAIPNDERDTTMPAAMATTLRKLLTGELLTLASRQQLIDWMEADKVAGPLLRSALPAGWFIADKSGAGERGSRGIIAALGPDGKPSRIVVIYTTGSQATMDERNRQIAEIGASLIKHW
Beta-2 adrenergic receptor, sequence (P07550 whole entry): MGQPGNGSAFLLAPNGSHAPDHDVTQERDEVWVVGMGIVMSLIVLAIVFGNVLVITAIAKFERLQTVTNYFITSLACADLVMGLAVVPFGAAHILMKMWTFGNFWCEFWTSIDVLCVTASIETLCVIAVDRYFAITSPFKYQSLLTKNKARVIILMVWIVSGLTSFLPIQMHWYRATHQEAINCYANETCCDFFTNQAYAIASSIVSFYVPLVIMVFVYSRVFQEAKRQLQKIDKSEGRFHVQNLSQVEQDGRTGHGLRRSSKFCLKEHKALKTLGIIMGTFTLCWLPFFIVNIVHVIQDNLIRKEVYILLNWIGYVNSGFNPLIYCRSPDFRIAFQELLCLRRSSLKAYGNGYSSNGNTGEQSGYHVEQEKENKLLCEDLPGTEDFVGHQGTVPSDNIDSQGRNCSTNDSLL

**Q.** Which EC50 [1] does the source give for COc1cccc(CSc2nc3ccccc3cc2C=O)c1 here?
**A.** The EC50 was 0.301 µM (active).

**Q.** And the EC50 [2]?
**A.** Its EC50 is 17.7 µM (active).

**Q.** And the EC50 [3]?
**A.** Its EC50 is 21.6 µM (active).

**Q.** What about the EC50 [4] of the same compound?
**A.** Its EC50 is 13.7 µM (active).

**Q.** And the EC50 [5]?
**A.** Its EC50 is 16.6 µM (active).

**Q.** And the EC50 [6]?
**A.** Its EC50 is 0.944 µM (inconclusive).

**Q.** What about the EC50 [7] of the same compound?
**A.** The EC50 was 1.17 µM (active).

**Q.** And the EC50 [8]?
**A.** The EC50 was 1.27 µM (active).

**Q.** For CCN(c1ccc2c(c1)OCO2)S(=O)(=O)c1cc(Br)cc2c1N(C(C)=O)CC2, which EC50 [9] is on record?
**A.** Its EC50 is 0.891 µM (active).

**Q.** What about the EC50 [10] of the same compound?
**A.** Its EC50 is > 60 µM (not active).

**Q.** And the EC50 [11]?
**A.** The EC50 was 10.5 µM (inactive).

**Q.** Which EC50 [2] does the source give for Cc1ccc(C(=O)N/C(=C/c2ccc(-c3ccc([N+](=O)[O-])cc3)o2)C(=O)NCCCN(C)C)cc1 here?
**A.** The EC50 was > 120 µM (not active).

**Q.** What about the IC50 [12] of the same compound?
**A.** The IC50 was 6.55 µM (active).

**Q.** And the EC50 [4]?
**A.** The EC50 was > 120 µM (not active).

**Q.** What about the IC50 [13] of the same compound?
**A.** Its IC50 is 22.9 µM (inactive).

**Q.** What about the EC50 [5] of the same compound?
**A.** The EC50 was > 120 µM (not active).

**Q.** And the IC50 [14]?
**A.** Its IC50 is 5.71 µM (active).

**Q.** What about the IC50 [15] of the same compound?
**A.** Its IC50 is 13.8 µM (active).

**Q.** For CCN1C(=O)C2C(c3ccccc3F)NC(Cc3ccc(O)cc3)(C(=O)OC)C2C1=O (centres undefined), which AC50 [16] is on record?
**A.** Its AC50 is 10.2 µM (active).
